These results are taken from ChEMBL document CHEMBL4715869, “N-(Pyrimidin-2-yl)-1,2,3,4-tetrahydroisoquinolin-6-amine Derivatives as Selective Janus Kinase 2 Inhibitors for the Treatment of Myeloproliferative Neoplasms” (J Med Chem, 2020).

Where only a bound is given, the exact number is not on record here.

Assay [1] is filed under the species Homo sapiens. The assay is described as follows: Selectivity index, ratio of IC50 for inhibition of FLT3 ITD mutant in human MOLM13 cells to IC50 for inhibition of JAK2 V617F mutant in human SET-2 cells. It is filed as cell-based.
Assay [2] has as its target Tyrosine-protein kinase JAK1 (Homo sapiens, UniProt P23458). Put plainly: Inhibition of human JAK1 (866 to end residues) using GEEPLYWSFPAKKK as substrate after 40 mins by [gamma-33ATP] radiometric assay.
The target in assay [3] is T1, Tyrosine-protein kinase JAK3 (Homo sapiens, UniProt P52333).
T1 sequence (P52333 whole entry): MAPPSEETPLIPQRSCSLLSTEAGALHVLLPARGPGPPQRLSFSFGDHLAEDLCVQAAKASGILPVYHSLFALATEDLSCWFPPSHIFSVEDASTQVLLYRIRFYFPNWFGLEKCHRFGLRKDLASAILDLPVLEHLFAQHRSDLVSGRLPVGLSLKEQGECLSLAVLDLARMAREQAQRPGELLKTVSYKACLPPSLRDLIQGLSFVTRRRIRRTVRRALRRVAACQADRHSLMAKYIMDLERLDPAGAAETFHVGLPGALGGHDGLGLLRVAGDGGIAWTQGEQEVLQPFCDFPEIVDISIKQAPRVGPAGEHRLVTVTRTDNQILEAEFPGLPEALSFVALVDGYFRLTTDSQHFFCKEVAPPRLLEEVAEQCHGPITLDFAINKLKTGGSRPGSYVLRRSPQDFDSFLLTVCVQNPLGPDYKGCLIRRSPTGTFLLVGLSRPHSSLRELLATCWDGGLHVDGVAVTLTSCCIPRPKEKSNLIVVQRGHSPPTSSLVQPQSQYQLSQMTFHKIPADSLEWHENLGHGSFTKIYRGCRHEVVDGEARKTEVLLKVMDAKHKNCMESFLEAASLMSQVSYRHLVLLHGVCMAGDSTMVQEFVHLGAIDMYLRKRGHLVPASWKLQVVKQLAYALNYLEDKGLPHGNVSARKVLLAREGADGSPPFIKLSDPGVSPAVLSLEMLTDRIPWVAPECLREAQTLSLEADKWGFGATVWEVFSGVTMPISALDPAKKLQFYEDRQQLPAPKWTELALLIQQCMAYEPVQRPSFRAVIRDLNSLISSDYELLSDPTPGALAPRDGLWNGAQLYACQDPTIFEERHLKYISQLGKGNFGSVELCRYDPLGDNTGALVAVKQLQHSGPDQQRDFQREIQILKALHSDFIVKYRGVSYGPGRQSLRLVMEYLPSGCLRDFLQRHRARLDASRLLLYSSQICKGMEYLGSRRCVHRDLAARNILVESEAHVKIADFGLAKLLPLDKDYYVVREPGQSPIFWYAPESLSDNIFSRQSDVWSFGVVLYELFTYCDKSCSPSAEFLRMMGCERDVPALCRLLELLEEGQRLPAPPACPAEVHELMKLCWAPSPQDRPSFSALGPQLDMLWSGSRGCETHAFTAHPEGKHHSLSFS
Put plainly: Inhibition of recombinant human JAK3 (781 to end residues) using GGEEEEYFELVKKKK as substrate measured after 40 mins in presence of [gamm33P]ATP by scintillation counting method.

Assay [4] can be described thus: Selectivity index, ratio of IC50 for inhibition of recombinant human FLT3 D835Y mutant (564 to end residues) to IC50 for inhibition of recombinant human JAK2 (808 to end residues).
Assay [5] in a line: Selectivity index, ratio of IC50 for inhibition of recombinant human TYK2 (875 to end residues) to IC50 for inhibition of recombinant human JAK2 (808 to end residues).
Assay [6] can be described thus: Selectivity index, ratio of IC50 for inhibition of recombinant human JAK3 (781 to end residues) to IC50 for inhibition of recombinant human JAK2 (808 to end residues).
In assay [7] the target is Tyrosine-protein kinase JAK2 (Homo sapiens, UniProt O60674). The assay is described as follows: Inhibition of recombinant human JAK2 (808 to end residues) KTFCGTPEYLAPEVRREPRILSEEEQEMFRDFDYIADWC as substrate measured after 40 mins in presence of [gamm33P]ATP by scintillation counting method.
For assay [8], the target named is Receptor-type tyrosine-protein kinase FLT3 (Homo sapiens, UniProt P36888, D835Y). Put plainly: Inhibition of recombinant human FLT3 D835Y mutant (564 to end residues) using EAIYAAPFAKKK as substrate at 40 mins in presence of [gamma-33ATP] by scintillation counting based radiometry assay.
Assay [9] concerns Receptor-type tyrosine-protein kinase FLT3 (Homo sapiens), P36888 [UNDEFINED MUTATION]. Put plainly: Inhibition of FLT3 ITD mutant in human MOLM13 cells assessed as residual activity at 100 nM relative to control. It is filed as cell-based. The following applies: MOLM-13.
Assay [10] can be described thus: Selectivity index, ratio of IC50 for inhibition of human JAK1 (866 to end residues) to IC50 for inhibition of recombinant human JAK2 (808 to end residues).
Assay [11] has as its target Non-receptor tyrosine-protein kinase TYK2 (Homo sapiens, UniProt P29597). Put plainly: Inhibition of recombinant human TYK2 (875 to end residues) using GGMEDIYFEFMGGKKK as substrate incubated for 40 mins in presence of [gamma33P]ATP by scintillation counting based radiometry assay.

The IC50 is the concentration at which inhibition is half-maximal.

Sequence of Non-receptor tyrosine-protein kinase TYK2 (P29597 whole entry): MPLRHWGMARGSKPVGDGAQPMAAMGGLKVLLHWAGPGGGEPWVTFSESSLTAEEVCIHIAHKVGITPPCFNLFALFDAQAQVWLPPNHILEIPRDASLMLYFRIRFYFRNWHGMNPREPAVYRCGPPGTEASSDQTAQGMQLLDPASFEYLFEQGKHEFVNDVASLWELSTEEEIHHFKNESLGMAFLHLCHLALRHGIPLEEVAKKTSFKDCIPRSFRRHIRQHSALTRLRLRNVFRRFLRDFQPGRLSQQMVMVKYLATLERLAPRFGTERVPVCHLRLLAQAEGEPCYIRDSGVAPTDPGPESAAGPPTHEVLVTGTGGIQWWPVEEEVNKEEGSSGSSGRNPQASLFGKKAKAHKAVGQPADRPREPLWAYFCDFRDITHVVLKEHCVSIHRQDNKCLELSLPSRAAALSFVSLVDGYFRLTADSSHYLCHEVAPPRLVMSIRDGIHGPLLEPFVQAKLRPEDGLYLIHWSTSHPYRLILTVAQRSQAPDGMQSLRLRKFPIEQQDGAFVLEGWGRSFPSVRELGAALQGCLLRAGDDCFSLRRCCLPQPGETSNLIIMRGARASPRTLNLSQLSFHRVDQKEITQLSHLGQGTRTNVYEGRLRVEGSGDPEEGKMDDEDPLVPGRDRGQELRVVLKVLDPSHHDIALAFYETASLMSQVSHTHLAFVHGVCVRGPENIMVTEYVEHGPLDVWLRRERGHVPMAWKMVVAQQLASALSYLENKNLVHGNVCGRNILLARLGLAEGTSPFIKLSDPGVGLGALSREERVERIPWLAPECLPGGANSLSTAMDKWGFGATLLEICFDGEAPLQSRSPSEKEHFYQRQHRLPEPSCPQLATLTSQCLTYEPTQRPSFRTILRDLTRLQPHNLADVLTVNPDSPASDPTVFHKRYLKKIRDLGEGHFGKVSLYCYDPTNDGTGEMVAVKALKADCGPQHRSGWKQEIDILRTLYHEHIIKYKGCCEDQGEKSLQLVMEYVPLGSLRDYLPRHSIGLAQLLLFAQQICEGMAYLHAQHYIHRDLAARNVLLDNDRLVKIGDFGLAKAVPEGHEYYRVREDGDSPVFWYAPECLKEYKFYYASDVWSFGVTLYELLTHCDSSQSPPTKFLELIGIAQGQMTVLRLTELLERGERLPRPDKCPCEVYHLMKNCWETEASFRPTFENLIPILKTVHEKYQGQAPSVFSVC
Sequence of Tyrosine-protein kinase JAK1 (P23458 whole entry): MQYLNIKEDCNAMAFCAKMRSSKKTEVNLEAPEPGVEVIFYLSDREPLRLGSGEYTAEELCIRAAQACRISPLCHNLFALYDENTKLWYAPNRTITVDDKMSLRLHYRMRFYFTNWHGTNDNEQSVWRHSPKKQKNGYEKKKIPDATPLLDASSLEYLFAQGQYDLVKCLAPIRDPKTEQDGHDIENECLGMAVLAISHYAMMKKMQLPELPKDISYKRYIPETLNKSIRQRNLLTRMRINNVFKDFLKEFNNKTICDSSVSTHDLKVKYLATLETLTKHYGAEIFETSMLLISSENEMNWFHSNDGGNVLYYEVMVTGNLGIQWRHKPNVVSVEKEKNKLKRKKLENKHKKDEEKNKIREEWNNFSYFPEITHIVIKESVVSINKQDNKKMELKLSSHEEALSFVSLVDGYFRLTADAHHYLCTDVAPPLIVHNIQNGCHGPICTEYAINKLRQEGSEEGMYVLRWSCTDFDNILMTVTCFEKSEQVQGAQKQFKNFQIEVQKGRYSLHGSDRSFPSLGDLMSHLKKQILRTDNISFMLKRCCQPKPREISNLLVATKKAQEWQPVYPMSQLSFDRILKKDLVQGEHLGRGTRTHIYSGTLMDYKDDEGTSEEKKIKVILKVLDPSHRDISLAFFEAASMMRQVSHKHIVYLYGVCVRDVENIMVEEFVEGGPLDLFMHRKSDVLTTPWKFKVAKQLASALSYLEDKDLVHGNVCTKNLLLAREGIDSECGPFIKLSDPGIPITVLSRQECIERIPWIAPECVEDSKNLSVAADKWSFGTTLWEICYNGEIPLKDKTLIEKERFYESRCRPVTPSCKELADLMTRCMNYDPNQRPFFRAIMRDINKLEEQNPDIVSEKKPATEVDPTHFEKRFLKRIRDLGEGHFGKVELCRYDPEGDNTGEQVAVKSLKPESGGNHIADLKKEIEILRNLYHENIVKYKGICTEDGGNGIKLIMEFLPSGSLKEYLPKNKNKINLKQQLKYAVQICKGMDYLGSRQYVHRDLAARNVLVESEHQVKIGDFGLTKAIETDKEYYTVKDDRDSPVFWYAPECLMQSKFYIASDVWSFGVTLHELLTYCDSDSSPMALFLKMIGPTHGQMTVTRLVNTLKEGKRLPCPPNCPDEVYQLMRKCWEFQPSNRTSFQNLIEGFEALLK
Sequence of Tyrosine-protein kinase JAK2 (O60674 whole entry): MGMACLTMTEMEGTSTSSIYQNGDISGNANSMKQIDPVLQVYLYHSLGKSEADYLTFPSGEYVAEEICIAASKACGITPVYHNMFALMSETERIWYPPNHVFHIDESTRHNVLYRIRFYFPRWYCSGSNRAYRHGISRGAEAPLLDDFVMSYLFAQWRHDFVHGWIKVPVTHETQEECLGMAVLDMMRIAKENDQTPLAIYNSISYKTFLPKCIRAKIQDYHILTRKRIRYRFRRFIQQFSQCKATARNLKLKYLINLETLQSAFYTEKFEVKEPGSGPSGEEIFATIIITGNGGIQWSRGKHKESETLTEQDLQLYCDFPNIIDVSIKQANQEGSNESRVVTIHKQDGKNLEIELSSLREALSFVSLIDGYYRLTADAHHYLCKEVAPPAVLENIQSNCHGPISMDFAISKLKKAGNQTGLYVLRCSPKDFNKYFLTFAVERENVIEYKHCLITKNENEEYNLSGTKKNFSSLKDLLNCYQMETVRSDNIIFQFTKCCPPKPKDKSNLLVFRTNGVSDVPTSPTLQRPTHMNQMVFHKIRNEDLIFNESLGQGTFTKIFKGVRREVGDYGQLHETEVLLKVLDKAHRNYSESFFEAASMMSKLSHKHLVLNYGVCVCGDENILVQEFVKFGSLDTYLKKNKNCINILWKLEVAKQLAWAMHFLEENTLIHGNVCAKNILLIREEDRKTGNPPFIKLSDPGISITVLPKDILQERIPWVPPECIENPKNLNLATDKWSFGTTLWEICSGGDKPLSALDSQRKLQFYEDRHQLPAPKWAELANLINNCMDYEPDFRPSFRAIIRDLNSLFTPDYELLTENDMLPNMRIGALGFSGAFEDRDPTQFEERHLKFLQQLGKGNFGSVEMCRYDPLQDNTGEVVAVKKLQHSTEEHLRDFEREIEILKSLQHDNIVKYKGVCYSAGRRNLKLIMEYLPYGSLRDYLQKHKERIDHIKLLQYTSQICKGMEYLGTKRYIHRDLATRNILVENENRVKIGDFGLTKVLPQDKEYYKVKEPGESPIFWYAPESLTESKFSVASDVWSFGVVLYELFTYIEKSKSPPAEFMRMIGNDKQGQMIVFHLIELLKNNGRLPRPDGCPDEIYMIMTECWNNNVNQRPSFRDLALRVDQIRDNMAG

For the compound `Cc1cnc(Nc2ccc3c(c2)CCN(C/C=C/C(=O)NCCN2CCCCC2)C3)nc1-c1cnn(C(C)C)c1`, the Ratio IC50 in assay [1] stood at 3.8.

In the case of `Cc1cnc(Nc2ccc3c(c2)CCN(C(=O)/C=C/C(=O)c2ccccc2)C3)nc1-c1cnn(C(C)C)c1`, the 50% inhibitory concentration (IC50) in [2] came out at 47 nM; in assay [3], 120 nM; in assay [7], 10 nM; in assay [8], 34 nM; in assay [11] it was 79 nM. Besides, the Ratio IC50 in assay [4] worked out at 3.4; in [5], 7.9; in assay [6], 12; in [1], 8.8; in assay [10], 4.7. Moreover, in [9], the Activity stood at 41%.

With `CC(C)n1cc(-c2nc(Nc3ccc4c(c3)CCN(CCO)C4)ncc2F)cn1`, in assay [1], the Ratio IC50 was found to be 0.84. Besides, the Activity in assay [9] was found to be 43%.

For `Cc1cnc(Nc2ccc3c(c2)CCN(C(=O)Nc2cccc(Cl)c2)C3)nc1-c1cnn(C(C)C)c1`, the Ratio IC50 in assay [1] amounted to 0.6. Further, in assay [9], the Activity came out at 99%.

As to `Cc1cnc(Nc2ccc3c(c2)CCN(CCCO)C3)nc1-c1cnn(C(C)C)c1`, the Ratio IC50 in assay [1] was 3.4. Besides, the Activity in assay [9] is 62%.

On to `Cc1cnc(Nc2ccc3c(c2)CCN3CCO)nc1-c1cnn(C(C)C)c1`, for which, in [1], the Ratio IC50 turned out to be 0.54. Moreover, the Activity in [9] is 79%.

In the case of `CC(C)n1cc(-c2nc(Nc3ccc4c(c3)CCN(C(=O)CO)C4)ncc2F)cn1`, the Ratio IC50 in assay [1] amounted to 0.79. In addition, the Activity in [9] was found to be 39%.

As to `Cc1cnc(Nc2ccc3c(n2)CCN(CCCO)C3)nc1-c1cnn(C(C)C)c1`, the Ratio IC50 in [1] worked out at 1.1. For the same compound, the Activity in assay [9] turned out to be 88%.

In the case of `Cc1cnc(Nc2ccc3c(c2)CCN(CCC#N)C3)nc1-c1cnn(C(C)C)c1`, in assay [1], the Ratio IC50 came to 1.2. For the same compound, in assay [9], the Activity was determined as 35%.

Regarding `Cc1cnc(Nc2ccc3c(c2)CCN(C/C=C/C(=O)O)C3)nc1-c1cnn(C(C)C)c1`, the Ratio IC50 in assay [1] was 2.5. In assay [9], the Activity was found to be 78%.

On to `COC(=O)CCCN1CCc2cc(Nc3ncc(C)c(-c4cnn(C(C)C)c4)n3)ccc2C1`, for which the Ratio IC50 in assay [1] worked out at 1.2.

Consider `Cc1cnc(Nc2ccc3c(c2)CCN(CCCCCO)C3)nc1-c1cnn(C(C)C)c1`, for which the Activity in assay [9] is 63%.

Regarding `Cc1cnc(Nc2ccc3c(c2)CN(CCO)C3)nc1-c1cnn(C(C)C)c1`, the Activity in assay [9] turned out to be 67%.

Take `Cc1cnc(Nc2ccc3c(c2)CN(C(=O)/C=C/CN(C)C)CC3)nc1-c1cnn(C(C)C)c1`: the IC50 stood at 91 nM in assay [2]; 147 nM in [3]; 9 nM in assay [7]; 23 nM in assay [8]; 45 nM in assay [11]. In addition, the Ratio IC50 in assay [4] turned out to be 2.5; in assay [5] it was 5; in [6] it was 16; in [1], 29.8; in assay [10] it was 10. Besides, the Activity in [9] was 52%.

`Cc1cnc(Nc2ccc3c(c2)CN(C(=O)/C=C/C(=O)c2ccccc2)CC3)nc1-c1cnn(C(C)C)c1`: the IC50 is 30 nM in assay [2]; 89 nM in [3]; 2 nM in [7]; 16 nM in [8]; 52 nM in assay [11]. In addition, the Ratio IC50 came to 8 in [4]; 26 in [5]; 44.5 in assay [6]; 12.5 in assay [1]; 15 in assay [10]. Also, the Activity in [9] was determined as 47%.

Consider `CC(C)n1cc(-c2nc(Nc3ccc4c(c3)CCN(CCCO)C4)ncc2F)cn1`, for which the Ratio IC50 in assay [1] is 1.4. For the same compound, in assay [9], the Activity was found to be 44%.

In the case of `CCCNC(=O)N1CCc2cc(Nc3ncc(C)c(-c4cnn(C(C)C)c4)n3)ccc2C1`, the Ratio IC50 in assay [1] stood at 1.2.

Consider `COC(=O)/C=C/CN1CCc2ccc(Nc3ncc(C)c(-c4cnn(C(C)C)c4)n3)cc2C1`, for which, in assay [1], the Ratio IC50 came to 6. Besides, the Activity in assay [9] amounted to 43%.

Regarding `C#CCN1CCc2cc(Nc3ncc(C)c(-c4cnn(C(C)C)c4)n3)ccc2C1`, the Activity in assay [9] was 79%.

For `CC(C)n1cc(-c2nc(Nc3ccc4c(c3)CCN(CCCCCO)C4)ncc2F)cn1`, in assay [1], the Ratio IC50 stood at 0.72. Besides, the Activity in [9] worked out at 42%.

Consider `C=CCN1CCc2cc(Nc3ncc(C)c(-c4cnn(C(C)C)c4)n3)ccc2C1`, for which, in [1], the Ratio IC50 was determined as 3. In assay [9], the Activity was 67%.

Turning to `Cc1cnc(Nc2ccc3c(c2)CCN(CCCCO)C3)nc1-c1cnn(C(C)C)c1`, the Ratio IC50 in [1] is 3.3. The Activity in assay [9] is 56%.

`CC#CCN1CCc2cc(Nc3ncc(C)c(-c4cnn(C(C)C)c4)n3)ccc2C1`: the Ratio IC50 in assay [1] turned out to be 2. The Activity in assay [9] stood at 85%.

Take `Cc1cnc(Nc2ccc3c(c2)CCN(CCO)C3)nc1-c1cnn(C(C)C)c1`: the Ratio IC50 in assay [1] was determined as 3.9. In assay [9], the Activity amounted to 66%.

As for `CCNC(=O)N1CCc2cc(Nc3ncc(C)c(-c4cnn(C(C)C)c4)n3)ccc2C1`, the Ratio IC50 in [1] came to 0.45.

As for `Cc1cnc(Nc2cc3c(cc2F)CN(CCO)CC3)nc1-c1cnn(C(C)C)c1`, the Ratio IC50 in assay [1] is > 1.2.

Take `CCCCN1CCc2cc(Nc3ncc(C)c(-c4cnn(C(C)C)c4)n3)ccc2C1`: the Ratio IC50 in assay [1] came out at 1.3. Besides, the Activity in [9] is 57%.

For the compound `CCOCCN1CCc2cc(Nc3ncc(C)c(-c4cnn(C(C)C)c4)n3)ccc2C1`, in assay [1], the Ratio IC50 was 1.7. For the same compound, the Activity in assay [9] is 40%.

In the case of `CC(C)n1cc(-c2nc(Nc3ccc4c(c3)CCN(CCCCO)C4)ncc2F)cn1`, the Ratio IC50 in [1] was 0.75. In addition, the Activity in assay [9] was 39%.

For `Cc1cnc(Nc2ccc3c(c2)CCN(C(=O)CCCN(C)C)C3)nc1-c1cnn(C(C)C)c1`, in [1], the Ratio IC50 was determined as 1.5.

For the compound `CCN(CC)C(=O)/C=C/CN1CCc2cc(Nc3ncc(C)c(-c4cnn(C(C)C)c4)n3)ccc2C1`, in [1], the Ratio IC50 worked out at 2. Also, the Activity in [9] was determined as 66%.

Take `Cc1cnc(Nc2ccc3c(c2)CN(CC#N)CC3)nc1-c1cnn(C(C)C)c1`: in assay [1], the Ratio IC50 is 4.5. For the same compound, the Activity in assay [9] came out at 51%.

Consider `Cc1cnc(Nc2ccc3c(c2)CCN(C/C=C/C(=O)NC(C)(C)C)C3)nc1-c1cnn(C(C)C)c1`, for which, in assay [1], the Ratio IC50 was 1.7.

Take `Cc1ccc(C(=O)CCC(=O)N2CCc3cc(Nc4ncc(C)c(-c5cnn(C(C)C)c5)n4)ccc3C2)cc1`: the Ratio IC50 in [1] is 1.7.

Consider `Cc1cnc(Nc2ccc3c(c2)CCN(CC#N)C3)nc1-c1cnn(C(C)C)c1`, for which the IC50 in [2] turned out to be 43 nM; in assay [3] it was 54 nM; in assay [7] it was 7 nM; in assay [8], 108 nM; in assay [11] it was 56 nM. Further, the Ratio IC50 in [4] was 15.4; in [5] it was 8; in assay [6], 7.7; in assay [1], 8.8; in [10], 6.1. Further, the Activity in [9] stood at 50%.
